From ChEMBL document CHEMBL4811304, “Design, synthesis and biological evaluation of dual mTOR/HDAC6 inhibitors in MDA-MB-231 cells” (Bioorg Med Chem Lett, 2021)
Activity calls are given as the source filed them. No cut-off for these calls is given here.

Experiments:
MDA-MB-231 [1] = test: Induction of apoptosis in human MDA-MB-231 cells assessed as live cells at 20 uM by annexin V/propidium iodide staining-based flow cytometry analysis (reference value: 96.7 %); assay type: functional
MDA-MB-231 [2] = test: Induction of apoptosis in human MDA-MB-231 cells assessed as necrotic cells at 20 uM by annexin V/propidium iodide staining-based flow cytometry analysis (reference value: 0.099 %); assay type: functional
[3] = biological target: Serine/threonine-protein kinase mTOR (Homo sapiens, UniProt P42345); test: Inhibition of mTOR (unknown origin) at 0.5 uM relative to control
MDA-MB-231 [4] = test: Induction of apoptosis in human MDA-MB-231 cells assessed as upregulation of BAX at 5 to 20 uM by Western blot analysis; assay type: functional, cell-based; conditions: dose 5-20 µM
MCF-10A = test: Cytotoxicity against human MCF-10A cells assessed as increase in cell viability; assay type: cell-based
MDA-MB-231 [5] = test: Inhibition of cell migration in human MDA-MB-231 cells after 48 hrs by wound healing assay; assay type: functional, cell-based; conditions: dose 5-20 µM
MDA-MB-231 [6] = test: Antiproliferative activity against human MDA-MB-231 cells measured after 48 hrs; assay type: functional, cell-based; conditions: MDA-MB-231, 48 h
MDA-MB-231 [7] = test: Induction of autophagy in human MDA-MB-231 cells transfected with GFP-LC3 assessed as increase in Beclin 1 level at 5 to 20 uM after 48 hrs by Western blot analysis; assay type: functional, cell-based; conditions: dose 5-20 µM
[8] = biological target: T1, Protein deacetylase HDAC6 (Homo sapiens, UniProt Q9UBN7); test: Inhibition of HDAC6 (unknown origin)
T1 sequence (Q9UBN7 whole entry): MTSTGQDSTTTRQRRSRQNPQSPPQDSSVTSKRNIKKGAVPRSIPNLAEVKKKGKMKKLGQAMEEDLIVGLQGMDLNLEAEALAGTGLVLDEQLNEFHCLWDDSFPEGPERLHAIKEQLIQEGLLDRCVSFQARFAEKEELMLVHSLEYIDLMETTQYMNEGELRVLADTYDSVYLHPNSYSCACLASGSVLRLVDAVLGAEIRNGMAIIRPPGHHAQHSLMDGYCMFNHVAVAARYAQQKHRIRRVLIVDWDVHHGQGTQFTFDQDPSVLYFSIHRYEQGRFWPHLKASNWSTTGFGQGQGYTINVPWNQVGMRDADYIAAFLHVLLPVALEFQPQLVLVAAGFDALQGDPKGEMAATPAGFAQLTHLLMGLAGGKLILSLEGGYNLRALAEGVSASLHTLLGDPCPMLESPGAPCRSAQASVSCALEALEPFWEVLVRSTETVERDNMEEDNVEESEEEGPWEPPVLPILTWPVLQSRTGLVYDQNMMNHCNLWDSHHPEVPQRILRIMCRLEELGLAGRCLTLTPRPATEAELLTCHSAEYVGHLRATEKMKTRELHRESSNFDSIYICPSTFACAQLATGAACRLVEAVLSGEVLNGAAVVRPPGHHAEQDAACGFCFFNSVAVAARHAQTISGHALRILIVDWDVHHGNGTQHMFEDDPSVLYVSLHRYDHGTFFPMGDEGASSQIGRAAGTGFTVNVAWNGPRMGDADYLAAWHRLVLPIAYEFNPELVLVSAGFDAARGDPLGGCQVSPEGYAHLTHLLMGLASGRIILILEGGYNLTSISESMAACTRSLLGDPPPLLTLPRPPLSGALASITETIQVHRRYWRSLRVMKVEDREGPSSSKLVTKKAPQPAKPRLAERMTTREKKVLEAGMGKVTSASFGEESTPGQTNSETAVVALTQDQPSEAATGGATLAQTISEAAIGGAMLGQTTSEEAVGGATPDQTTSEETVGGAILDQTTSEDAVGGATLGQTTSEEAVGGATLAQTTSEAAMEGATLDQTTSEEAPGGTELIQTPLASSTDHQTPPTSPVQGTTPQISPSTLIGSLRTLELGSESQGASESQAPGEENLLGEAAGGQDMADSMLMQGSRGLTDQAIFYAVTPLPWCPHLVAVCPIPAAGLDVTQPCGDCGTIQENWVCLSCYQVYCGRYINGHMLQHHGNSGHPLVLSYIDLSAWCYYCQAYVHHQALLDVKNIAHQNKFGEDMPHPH

MDA-MB-231 [9] = test: Inhibition of cell migration in human MDA-MB-231 cells assessed as decrease in MMP-2 expression at 5 to 20 uM after 48 hrs by Western blot analysis; assay type: functional, cell-based; conditions: dose 5-20 µM
Histone deacetylase 3 [10] = biological target: T2, Histone deacetylase 3 (Homo sapiens, UniProt O15379); test: Binding affinity to HDAC3 in human MDA-MB-231 cells assessed as increase in thermal stability at 10 uM measured at 6 hrs by CETSA; assay type: cell-based
MDA-MB-231 [11] = test: Induction of apoptosis in human MDA-MB-231 cells assessed as increase in caspase 8 cleavage at 5 to 20 uM by Western blot analysis; assay type: functional, cell-based; conditions: dose 5-20 µM
MDA-MB-231 [12] = test: Induction of apoptosis in human MDA-MB-231 cells assessed as late apoptotic cells at 5 uM by annexin V/propidium iodide staining-based flow cytometry analysis (reference value: 2.34 %); assay type: functional
MDA-MB-231 [13] = test: Induction of apoptosis in human MDA-MB-231 cells assessed as necrotic cells at 5 uM by annexin V/propidium iodide staining-based flow cytometry analysis (reference value: 0.099 %); assay type: functional
MDA-MB-231 [14] = test: Induction of apoptosis in human MDA-MB-231 cells assessed as live cells at 10 uM by annexin V/propidium iodide staining-based flow cytometry analysis (reference value: 96.7 %); assay type: functional
[15] = biological target: T3, Protein deacetylase HDAC6 (Homo sapiens) (UniProt Q9UBN7); test: Inhibition of HDAC6 in human MDA-MB-231 cells assessed as accumulation of acetylated tubulin at 5 to 20 uM by Western blot analysis; assay type: cell-based; conditions: dose 5-20 µM
T3 sequence (whole entry): T1 sequence (Q9UBN7 whole entry)

MDA-MB-231 [16] = test: Induction of autophagy in human MDA-MB-231 cells transfected with GFP-LC3 assessed as decrease in SQSTM1/p62 expression at 5 to 20 uM after 48 hrs by Western blot analysis; assay type: functional, cell-based; conditions: dose 5-20 µM
Histone deacetylase 2 = Histone deacetylase 2 (Homo sapiens, UniProt Q92769); test: Inhibition of HDAC2 (unknown origin)
MDA-MB-231 [17] = test: Inhibition of cell migration in human MDA-MB-231 cells after 48 hrs by transwell assay; assay type: functional, cell-based; conditions: dose 5-20 µM
Histone deacetylase 3 [18] = biological target: T2, Histone deacetylase 3; test: Inhibition of HDAC3 (unknown origin)
MDA-MB-231 [19] = test: Induction of apoptosis in human MDA-MB-231 cells assessed as increase in caspase 3 cleavage at 5 to 20 uM by Western blot analysis; assay type: functional, cell-based; conditions: dose 5-20 µM
MDA-MB-231 [20] = test: Induction of apoptosis in human MDA-MB-231 cells assessed as early apoptotic cells at 20 uM by annexin V/propidium iodide staining-based flow cytometry analysis (reference value: 0.69 %); assay type: functional
[21] = biological target: T3, Protein deacetylase HDAC6 (Homo sapiens); test: Inhibition of HDAC6 in human MDA-MB-231 cells assessed as increase in acetylated lysine at 5 to 20 uM by Western blot analysis; assay type: cell-based; conditions: dose 5-20 µM
Histone deacetylase 1 [22] = biological target: T4, Histone deacetylase 1 (Homo sapiens, UniProt Q13547); test: Inhibition of HDAC1 (unknown origin)
[23] = biological target: T3, Protein deacetylase HDAC6 (Homo sapiens); test: Binding affinity to HDAC6 in human MDA-MB-231 cells assessed as increase in thermal stability at 10 uM measured at 6 hrs by CETSA; assay type: cell-based
Histone deacetylase 1 [24] = biological target: T4, Histone deacetylase 1; test: Binding affinity to HDAC1 in human MDA-MB-231 cells assessed as increase in thermal stability at 10 uM measured at 6 hrs by CETSA; assay type: cell-based

T4 sequence (Q13547 whole entry): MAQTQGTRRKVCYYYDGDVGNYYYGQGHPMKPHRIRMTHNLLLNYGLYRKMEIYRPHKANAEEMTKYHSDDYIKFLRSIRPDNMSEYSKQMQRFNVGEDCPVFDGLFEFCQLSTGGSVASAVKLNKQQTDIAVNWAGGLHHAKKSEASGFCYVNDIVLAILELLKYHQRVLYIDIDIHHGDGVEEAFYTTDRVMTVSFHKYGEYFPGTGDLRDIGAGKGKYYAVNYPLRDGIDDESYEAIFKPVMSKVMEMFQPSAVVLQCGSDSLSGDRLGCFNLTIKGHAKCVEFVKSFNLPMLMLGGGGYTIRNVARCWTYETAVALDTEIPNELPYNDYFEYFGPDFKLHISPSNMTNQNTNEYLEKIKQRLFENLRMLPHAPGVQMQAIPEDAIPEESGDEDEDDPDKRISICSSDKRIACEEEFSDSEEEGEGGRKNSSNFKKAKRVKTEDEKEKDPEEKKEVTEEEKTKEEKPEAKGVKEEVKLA
T2 sequence (O15379 whole entry): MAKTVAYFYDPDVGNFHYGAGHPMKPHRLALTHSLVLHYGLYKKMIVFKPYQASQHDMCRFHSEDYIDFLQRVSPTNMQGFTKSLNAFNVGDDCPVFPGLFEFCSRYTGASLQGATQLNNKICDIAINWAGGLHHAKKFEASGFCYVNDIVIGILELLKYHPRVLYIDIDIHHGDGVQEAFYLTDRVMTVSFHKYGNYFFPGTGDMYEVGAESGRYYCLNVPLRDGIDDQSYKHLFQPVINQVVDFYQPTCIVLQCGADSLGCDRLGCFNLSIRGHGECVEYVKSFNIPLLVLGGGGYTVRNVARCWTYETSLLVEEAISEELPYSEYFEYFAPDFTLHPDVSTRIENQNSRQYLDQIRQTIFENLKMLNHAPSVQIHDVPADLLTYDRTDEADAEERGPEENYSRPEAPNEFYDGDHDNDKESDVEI
Chain of Histone deacetylase 2 (Q92769 whole entry): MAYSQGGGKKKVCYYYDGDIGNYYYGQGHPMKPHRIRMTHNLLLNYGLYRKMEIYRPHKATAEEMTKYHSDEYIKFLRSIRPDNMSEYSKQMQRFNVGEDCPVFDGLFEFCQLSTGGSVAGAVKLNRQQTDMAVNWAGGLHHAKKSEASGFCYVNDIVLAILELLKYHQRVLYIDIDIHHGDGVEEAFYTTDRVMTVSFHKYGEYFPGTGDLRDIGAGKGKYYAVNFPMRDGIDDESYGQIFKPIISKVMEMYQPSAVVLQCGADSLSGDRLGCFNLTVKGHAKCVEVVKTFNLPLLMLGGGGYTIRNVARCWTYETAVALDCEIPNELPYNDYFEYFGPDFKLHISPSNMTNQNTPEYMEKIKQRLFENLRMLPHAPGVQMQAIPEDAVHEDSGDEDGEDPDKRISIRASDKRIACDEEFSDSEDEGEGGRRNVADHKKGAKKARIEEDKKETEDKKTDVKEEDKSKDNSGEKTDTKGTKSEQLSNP

inhibition [3]: 91.4% | IC50 (MDA-MB-231 [6]): 8400 nM | IC50 [8]: 56 nM | Activity (Histone deacetylase 3 [10]): inactive | inhibition [15]: Active | IC50 (Histone deacetylase 2): 374 nM | IC50 (Histone deacetylase 3 [18]): 414 nM | inhibition [21]: Active | IC50 (Histone deacetylase 1 [22]): 359 nM | Activity [23]: Active | Activity (Histone deacetylase 1 [24]): inactive
Compound: CN1CCN(c2nc(-c3ccc(C(=O)NO)cc3)nc3cc(Cl)ccc23)CC1
Activity (MDA-MB-231 [1]): 53.9% | Activity (MDA-MB-231 [2]): 0.46% | Activity (MDA-MB-231 [4]): Active | Activity (MCF-10A): Non-Toxic | inhibition (MDA-MB-231 [5]): Active | Activity (MDA-MB-231 [7]): Active | inhibition (MDA-MB-231 [9]): Active | Activity (MDA-MB-231 [11]): Active | Activity (MDA-MB-231 [12]): 6.39% | Activity (MDA-MB-231 [13]): 0.64% | Activity (MDA-MB-231 [14]): 69.1% | Activity (MDA-MB-231 [16]): Active | inhibition (MDA-MB-231 [17]): Active | Activity (MDA-MB-231 [19]): Active | Activity (MDA-MB-231 [20]): 11.3%
